Test results reported in ChEMBL document CHEMBL1136840 (Bioorg Med Chem Lett, 2009).

Biological target: T1, Carbonic anhydrase 15 (Mus musculus, UniProt Q99N23)
T1 sequence (Q99N23 whole entry): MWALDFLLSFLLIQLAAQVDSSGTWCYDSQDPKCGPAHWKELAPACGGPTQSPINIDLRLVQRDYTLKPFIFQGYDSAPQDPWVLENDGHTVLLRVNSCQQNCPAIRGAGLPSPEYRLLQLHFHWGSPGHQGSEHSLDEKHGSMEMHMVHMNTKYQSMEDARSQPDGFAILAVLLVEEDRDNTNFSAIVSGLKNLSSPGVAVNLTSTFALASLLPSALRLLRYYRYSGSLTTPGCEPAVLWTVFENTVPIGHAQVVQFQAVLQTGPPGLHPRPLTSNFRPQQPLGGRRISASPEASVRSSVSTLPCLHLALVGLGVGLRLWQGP

SMILES: NS(N)(=O)=O [SULFAMIDE]
- Ki: 37.4 µM
